From patent US20230203060A1 (GENFLEET THERAPEUTICS (SHANGHAI) INC., priority 2020, published 2023)
Where two headings read alike, the source gives them in different places.

How the values were obtained:
Assay type in all cases: cell-based, human
[1] = system: A549 cells (KRAS G12S mutant); experiment: Cell proliferation inhibition experiment, 3D spheroid, CellTiter-Glo, A549; conditions: A549 (KRAS G12S mutant) 3D spheroid, 5 days with compound, CellTiter-Glo, read-out: A549 IC50
How it was run: (§1)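 IC50 values come from four-parameter fits of proliferation inhibition, measured by CellTiter-Glo after 5-day compound exposure. Spheroids of H358 (800 cells) or A549 (400 cells) were formed overnight in 2% FBS medium; DMSO held at 0.1%, doses spaced 3.16-fold.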

[2] = system: KRAS G12C mutant NCI-H358 cells; experiment: Cell proliferation inhibition experiment, 3D spheroid, CellTiter-Glo, NCI-H358; conditions: NCI-H358 (KRAS G12C mutant) 3D spheroid, 5 days with compound, CellTiter-Glo, read-out: H358 IC50
How it was run: as §1

[3] = system: KRAS G12C mutant MIA PaCa-2 cells; experiment: Cell proliferation inhibition experiment, 3D spheroid, CellTiter-Glo, MIA PaCa-2; conditions: 3D cell model in 384-well spheroid plate, 5 days, CellTiter-Glo, read-out: MIA-PaCa2 IC50
How it was run: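 Luminescent ATP read-out (CellTiter-Glo) after 5-day compound treatment of spheroids formed overnight from 200 MIA PaCa-2 cells/well; compounds in 3.16-fold series, 0.1% DMSO final. IC50 derived by four-parameter fit of percent inhibition, normalized to DMSO control and medium blank.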

[4] = Homo sapiens, MIA PaCa-2, 120 h

SMILES	IC50 ([1]; Homo sapiens, A549, 120 h) [nM]	IC50 ([2]; Homo sapiens, NCI-H358, 120 h) [nM]	IC50 [3, 4] [nM]	IC50 [2] [nM]	IC50 [1] [nM]	IC50 [3] [nM]
C=CC(=O)N1CCN2C(=O)c3c(N4CCOC5(CC5)C4)nc(-c4c(O)cccc4F)c(Cl)c3OC[C@H]2C1 [Z63, (6aR)-8-acryloyl-4-chloro-1-(4-oxa-7-azaspiro[2.5]octan-7-yl)-3-(2-fluoro-6-hydroxyphenyl)-6,6a,7,8,9,10-hexahydro-12H-pyrazino[2,1-c]pyrido[3,4-f][1,4]oxazepin-12-one]	> 1000	14	23			
C=CC(=O)N1CCN2C(=O)c3c(N4CCN(C)C(C)(C)C4)nc(-c4c(O)cccc4F)c(Cl)c3OC[C@H]2C1 [Z261, (6aR)-8-acryloyl-4-chloro-3-(2-fluoro-6-hydroxyphenyl)-1-(3,3,4-trimethylpiperazin-1-yl)-6,6a,7,8,9,10-hexahydro-12H-pyrazino[2,1-c]pyrido[3,4-f][1,4]oxazepin-12-one]	8890	6.6	10.6			
C=CC(=O)N1CCN2C(=O)c3c(N4CCN(C)[C@H](C)C4)nc(-c4c(O)cccc4F)c(Cl)c3OC[C@H]2C1 [Z235, (6aR)-8-acryloyl-4-chloro-1-((R)-3,4-dimethylpiperazin-1-yl)-3-(2-fluoro-6-hydroxyphenyl)-6,6a,7,8,9,10-hexahydro-12H-pyrazino[2,1-c]pyrido[3,4-f][1,4]oxazepin-12-one]	9480	21	22.8			
C=CC(=O)N1CCN2C(=O)c3c(N4CC[C@@H]4C)nc(-c4c(O)cccc4F)c(Cl)c3OC[C@H]2C1 [Z68, (6aR)-8-acryloyl-1-((S)-2-methylazetidin-1-yl)-4-chloro-3-(2-fluoro-6-hydroxyphenyl)-6,6a,7,8,9,10-hexahydro-12H-pyrazino[2,1-c]pyrido[3,4-f][1,4]oxazepin-12-one]	> 5000	12	18			
C=CC(=O)N1CCN2C(=O)c3c(N4CC(O)CC4(C)C)nc(-c4c(O)cccc4F)c(F)c3OC[C@H]2C1 (stereo partly drawn) [Z256, (6aR)-8-acryloyl-4-fluoro-3-(2-fluoro-6-hydroxyphenyl)-1-(4-hydroxy-2,2-dimethylpyrrolidin-1-yl)-6,6a,7,8,9,10-hexahydro-12H-pyrazino[2,1-c]pyrido[3,4-f][1,4]oxazepin-12-one]	13900	5	10.8			
C=CC(=O)N1CCN2C(=O)c3c(N4CCOC5CC54)nc(-c4c(O)cccc4F)c(Cl)c3OC[C@H]2C1 (stereo partly drawn) [Z76, (6aR)-8-acryloyl-4-chloro-1-(2-oxa-5-azabicyclo[4.1.0]heptan-5-yl)-3-(2-fluoro-6-hydroxyphenyl)-6,6a,7,8,9,10-hexahydro-12H-pyrazino[2,1-c]pyrido[3,4-f][1,4]oxazepin-12-one]	> 1000	22	34			
C=CC(=O)N1CCN2C(=O)c3c(N4CC(N(C)C5COC5)CC4(C)C)nc(-c4c(O)cccc4F)c(Cl)c3OC[C@H]2C1 (single isomer, unassigned) [Z331-1]	8330		1.1	0.5		
C=CC(=O)N1CCN2C(=O)c3c(N4CCN(C)C[C@@H]4C)nc(-c4c(O)cccc4Cl)c(Cl)c3OC[C@H]2C1 (single isomer, unassigned) [Z455-2]				3.7	> 10000	9.2
